Results on one compound are retold here after patent US8680153B2, “Method for correcting a lipid imbalance in a subject” (The Royal Institution for the Advancement of …, priority 2005, dated 2014).

What all share (format): in vivo
For experiment [1], the system named is cytokines/chemokines (IL-17, IL-1β, IL-6, IL-7, IL-9, IL-10, IL-15, G-CSF, MIP-1a, KC). Put plainly: Cytokine/chemokine levels in lung homogenates of infected mice. How it is done:
Lung Homogenates. Lungs from infected mice were harvested and homogenized for 60 seconds at high speed (homogenizer PT10135; Brinkmann Instruments Co., Mississauga, ON) in 4 mL of sterile PBS (INVITROGEN™). Serial, 10-fold dilutions of lung homogenates were plated on petri dishes containing TSA. The number of CFU per lung was counted after overnight incubation at 37° C. For cytokine measurements, lung homogenates were centrifuged at 1500×g at 4° C. for 10 minutes; the supernatants were then removed, aliquoted in new tubes and stored at −20° C. until assayed for cytokine concentrations.
Cytokine/chemokine measurements. The levels of 10 cytokines/chemokines (IL-1β, IL-6, IL-7, IL-9, IL-10, IL-15, IL-17, G-CSF (granulocyte colony-stimulating factor), MIP-1a (macrophage inflammatory protein 1 alpha), and N51/KC (cytokine-induced neutrophil chemoattractant), were assessed in lung homogenates prepared from infected animals with the Mouse Cytokine/Chemokine LINCOplex kit (Linco Research, Inc, St-Charles, Mo.) using Luminex™ technology and assayed with the Luminex100LS™ system by Linco Research, Inc. The cytokine detection limit for this assay was 3.2 pg/ml.

Experiment [2] relates to Cftr-KO mice. Description: μCT of trabecular bone (femur), biweekly treatment for 4 weeks. On the procedure: (§1) Fenretinide Diet Supplementation. Examples 2 to 6: fenretinide (Sigma-Aldrich, Oakville, ON) powder was resuspended in 95% ethanol and subsequently incorporated in the Peptamen liquid diet. It was protected from light and kept at 4° C. before being given to the mice (5 mg/kg per day per mouse). Mock-treated diets were prepared similarly by adding ethanol to the Peptamen diet but omitting the fenretinide supplementation. The diet was given every morning for 28 consecutive days with specific monitoring of the quantity consumed by the mice in each cage. Examples 7 to 12: fenretinide powder was kindly provided by Dr. Robert Smith (NIH; Bethesda, Md., USA). Fenretinide was resuspended in 95% ethanol to make a 2 μg/μL concentration. Approximately 40 μL of this preparation was incorporated into the Peptamen liquid diet (5 mg/kg per day per mouse). The prepared food containing fenretinide was then stored in the dark at 4° C. for no more than 3 hours prior to being administered to the mice. To ensure that the entire drug dose was consumed, the mice were given 10 mL of fenretinide-treated Peptamen, which represents ⅔ of the daily mouse food consumption, in the late afternoon. The remaining 5 mL of Peptamen (without fenretinide) was given the following morning. Mice were treated twice a week for 4 weeks. During the treatment period each mouse was kept in a separate cage (including WT mice) and was monitored to ensure that the entire amount of Peptamen containing the fenretinide or with out was consumed. The diet for the mock-treated control group was prepared and administered similarly to that described above, by adding the same volume of ethanol to the Peptamen diet but omitting the fenretinide supplementation.
μ-CT. Mice were sacrificed by CO2 and exsanguinated by cardiac puncture. Femurs, tibiae and vertebrae were extracted, stripped of soft tissue and fixed in 4% paraformaldehyde overnight. Micro Computed Tomography (μCT) was performed on the left femur after overnight fixation. The distal metaphysis was scanned with a Skyscan 1072 μCT instrument (Skyscan, Antwerp, Belgium). Image acquisition was performed at 100 kV and 98 μA, with a 0.9° rotation between frames. The two-dimensional images were used to generate three-dimensional reconstructions to obtain quantitative data using the 3D Creator software supplied with the instrument (ANT 3D Creator software, Skyscan, Antwerp, Belgium).
Histological analysis. Mice were given an intra-peritoneal injection of 30 mg/kg calcein at 7 days and 2 days prior to sacrifice to label actively mineralizing surfaces. After overnight fixation in 4% paraformaldehyde and rinsing in phosphate buffered saline (PBS), right femurs and tibiae were embedded in polymethylmethacrylate (MMA) or a mixture of 50% MMA and 50% glycolmethacrylate (GMA). Serial 4- to 6-μm sections were cut on a modified Leica RM 2155 rotary microtome (Leica Microsystems, Richmond Hill, Ontario, Canada). MMA-embedded tissues were stained with von Kossa and toluidine blue, while 4 μm MMA-GMA sections were stained with tartrate-resistant acidic phosphatase (TRAP) and alkaline phosphate (ALP) activity. Images were captured using a Leica DMR microscope (Leica Microsystems) equipped with a Retiga 1300 camera (Qimaging, Burnaby, British Columbia, Canada). The left femur and tibia and the lumbar vertebrae were decalcified with 4% EDTA for paraffin embedding after 14 days. Serial 5 μm sections were cut and stained with hematoxylin and esosin (H&E). Osteoblasts were defined as a single-nucleated, rod shaped cells and were identified along the surface of the trabecular lamellae. Osteoclasts were defined as multi-nucleated cells that are much larger then osteoblasts and display typical macrophage morphology.

The test system of experiment [3] is ceramide levels. Description: Ceramide levels by ELISA in lung and plasma of P. aeruginosa-infected mice. On the procedure: as §1, with “The remaining 5 mL of Peptamen (without fenretinide) was given the following morning. Mice were treated twice a week for 4 weeks.” left out, “The diet for the mock-treated control group was prepared and administered similarly to that described above, by adding the same volume of ethanol to the Peptamen diet but omitting the fenretinide supplementation.” left out

[4] abbreviates: Cftr-KO mice, left femur, 8 doses over 4 weeks.

Turning to `CC1=C(/C=C/C(C)=C/C=C/C(C)=C/C(=O)Nc2ccc(O)cc2)C(C)(C)CCC1` [fenretinide, all-trans-N-(4-hydroxyphenyl) retinamide], the “Levels of IL-1β, IL-9, KC and MIP-1a vs mock-treated” value in experiment [1] (Cftr-KO mice, not statistically significant) is recorded as “trend towards decreased levels”. In experiment [1] (Cftr-KO mice, p=0.049), the “IL-17 level, decrease vs Cftr-KO controls” value is listed as 2.9 fold. In addition, the “All cytokines tested, fenretinide-treated vs untreated” value in experiment [1] (WT mice) is reported as “no difference”. Also, the “IL-6, G-CSF, IL-15, IL-10 and IL-7 levels” value in experiment [1] (time point tested) is given as “not affected”. In experiment [2] (Cftr-KO mice, biweekly treatment over four weeks (total 8 doses)), the “Signs of osteoporosis in the trabecular bone (μCT)” value is “completely eliminate any signs of osteoporosis”. In experiment [2] (setting [4]), the “Bone number (BN), increase vs Cftr-KO not treated” value is reported as 2.4 fold; the “Bone volume (BV), increase vs Cftr-KO not treated” value was found to be 3.1 fold; the “Bone volume/tissue volume (BV/TV), increase vs untreated Cftr-KO” value worked out at 2.7 fold. Further, in experiment [2] (left femur, fenretinide-treated mice), the “Structural model index (SMI), treated WT vs treated Cftr-KO” value was “no significant (p=0.320) difference”. In addition, in experiment [2] (left femur, fenretinide-treated mice, p=0.548), the “Trabecular separation, treated WT vs treated Cftr-KO” value is on record as “no longer a significant difference”. For the same compound, the “Increase in ceramide levels vs mock-treated controls” value in experiment [3] (P. aeruginosa-infected Cftr-KO mice) is listed as “approximately 7 fold”. Also, in experiment [3] (P. aeruginosa-infected WT mice), the “Increase in ceramide levels vs untreated counterparts” value is recorded as “approx. 2 fold”.
